Key:
[1] = Determination of the microsomal half-life / microsomal clearance, rat liver microsomes; assay type: in vitro ADME; conditions: 0.5 μM test substance, 0.25 mg of microsomal protein/ml, pH 7.4, 37° C.
Procedure: (§1) b) Determination of the Microsomal Half-Life:
(§2) The metabolic stability of the compounds of the invention was determined in the following assay.
(§3) The test substances were incubated in a concentration of 0.5 μM as follows:
(§4) 0.5 μM test substance are preincubated together with liver microsomes from different species (from rat, human or other species) (0.25 mg of microsomal protein/ml) in 0.05 M potassium phosphate buffer of pH 7.4 in microtiter plates at 37° C. for 5 min. The reaction is started by adding NADPH (1 mg/mL). After 0, 5, 10, 15, 20 and 30 min, 50 μl aliquots are removed, and the reaction is immediately stopped and cooled with the same volume of acetonitrile. The samples are frozen until analyzed. The remaining concentration of undegraded test substance is determined by MSMS. The half-life (T½) is determined from the gradient of the signal of test substance/unit time plot, it being possible to calculate the half-life of the test substance, assuming first order kinetics, from the decrease in the concentration of the compound with time. The microsomal clearance (mCl) is calculated from mCl=ln 2/T½/(content of microsomal protein in mg/ml)×1000 [ml/min/mg]

[2] = Determination of the microsomal half-life / microsomal clearance, human liver microsomes; assay type: in vitro ADME; conditions: 0.5 μM test substance, 0.25 mg of microsomal protein/ml, pH 7.4, 37° C.
Procedure: as §1, §2, §3, §4

PDE10A = PDE10A (Homo sapiens (Human), UniProt Q9Y233); assay: Measurement of PDE activity (recombinant PDE, cAMP HTRF); assay type: biochemical; conditions: 20 nM cyclic nucleotide substrate, 60 minutes at 29 C
Chain of PDE10A (Q9Y233 whole entry, species assumed): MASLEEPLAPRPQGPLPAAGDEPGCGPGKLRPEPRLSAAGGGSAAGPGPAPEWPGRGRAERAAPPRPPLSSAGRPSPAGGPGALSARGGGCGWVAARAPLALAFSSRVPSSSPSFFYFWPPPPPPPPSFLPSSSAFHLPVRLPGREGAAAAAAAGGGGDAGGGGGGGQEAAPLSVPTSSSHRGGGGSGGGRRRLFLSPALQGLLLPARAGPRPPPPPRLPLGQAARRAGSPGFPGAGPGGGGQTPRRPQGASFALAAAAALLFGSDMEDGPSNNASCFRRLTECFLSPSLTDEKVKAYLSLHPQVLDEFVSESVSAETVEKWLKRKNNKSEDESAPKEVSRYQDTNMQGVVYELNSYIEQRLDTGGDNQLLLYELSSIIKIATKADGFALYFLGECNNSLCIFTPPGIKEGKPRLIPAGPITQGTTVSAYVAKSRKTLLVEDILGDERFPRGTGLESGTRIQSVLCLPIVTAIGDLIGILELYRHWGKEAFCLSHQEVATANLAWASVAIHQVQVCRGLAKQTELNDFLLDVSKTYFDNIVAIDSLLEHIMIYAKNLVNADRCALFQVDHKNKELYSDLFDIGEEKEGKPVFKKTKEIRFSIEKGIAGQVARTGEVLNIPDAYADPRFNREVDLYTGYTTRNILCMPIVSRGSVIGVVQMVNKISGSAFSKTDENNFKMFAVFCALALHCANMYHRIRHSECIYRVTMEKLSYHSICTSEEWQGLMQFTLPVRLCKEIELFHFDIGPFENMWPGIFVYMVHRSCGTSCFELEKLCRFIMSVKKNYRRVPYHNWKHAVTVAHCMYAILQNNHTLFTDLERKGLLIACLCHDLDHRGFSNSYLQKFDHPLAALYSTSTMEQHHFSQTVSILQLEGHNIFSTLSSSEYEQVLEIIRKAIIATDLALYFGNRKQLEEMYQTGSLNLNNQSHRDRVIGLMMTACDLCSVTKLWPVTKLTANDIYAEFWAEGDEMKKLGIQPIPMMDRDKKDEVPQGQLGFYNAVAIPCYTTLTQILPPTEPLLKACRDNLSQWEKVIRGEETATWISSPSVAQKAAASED
Procedure: a) Measurement of PDE Activity
The recombinant PDE proteins are used in in vitro enzymatic reaction for measurement of PDE activity. These recombinant proteins, including PDE10A (human, rat and mouse PDE10) and isoforms of PDEs 1, 3, 4, and 5, were purchased from commercial vendor BPS Bioscience. The enzymatic activity of PDEs was determined by cAMP measurement kit from CisBio (IBA) using HTRF technology.
The PDE enzymatic reaction was carried out in assay buffer (20 mM Tris-HCl pH7.5, 10 mM MgCl2, 0.1% bovine serum albumin) containing enzyme and substrate. […] The substrate cyclic nucleotide (cAMP or cGMP) concentration used in the assay was 20 nM for PDE10, and 100 nM for other PDEs. The inhibitory effect of compound was determined by incubating various concentration of inhibitor in the enzymatic assay. […] Next, the compound at varying concentration was mixed with PDE enzyme. The reaction was initiated by addition of cyclic nucleotide substrate, and incubated for 60 minutes at 29 C. The reaction was stopped by addition of lysis buffer from assay kit. The cAMP-d2 and anti-cAMP cryptate in the lysis buffer detected the level of cAMP left from the PDE hydrolysis reaction. […] Thus, IC50 value of inhibitor can be obtained by plotting inhibitor concentration against PDE activity at that concentration.

Rat mCl [1] | Human mCl [2] | IC50 (PDE10A) [nM] | Compound
++ (<100 μl min^−1 mg^−1) | + (100-220 μl min^−1 mg^−1) | – | CCn1cc(C(=O)NC2CCc3sccc32)c2cc(OC)c(OC)cc2c1=O (single isomer, unassigned; (+)) [Example 204, (+)-2-Ethyl-6,7-dimethoxy-1-oxo-1,2-dihydro-isoquinoline-4-carboxylic acid (5,6-dihydro-4H-cyclopenta[b]thiophen-4-yl)-amide]
++ (<100 μl min^−1 mg^−1) | ++ (<100 μl min^−1 mg^−1) | – | COc1cc2c(C(=O)NC3CCc4ccccc43)cn(C3CC3)c(=O)c2cc1OC (centres unmarked) [Example 196, 2-Cyclopropyl-6,7-dimethoxy-1-oxo-1,2-dihydro-isoquinoline-4-carboxylic acid indan-1-ylamide]
– | – | 100 to 200 | CCC(CC)n1cc(C(=O)NCc2ccc(C)cc2)c2cc(OC)c(OC)cc2c1=O [Example 262, 6,7-Dimethoxy-N-(4-methylbenzyl)-1-oxo-2-(pentan-3-yl)-1,2-dihydroisoquinoline-4-carboxamide]
– | – | 200 to 500 | CCC(CC)n1cc(C(=O)NC2CCc3c(Cl)cccc32)c2cc(OC)c(OC)cc2c1=O (centres unmarked) [Example 265, N-(4-Chloro-2,3-dihydro-1H-inden-1-yl)-6,7-dimethoxy-1-oxo-2-(pentan-3-yl)-1,2-dihydroisoquinoline-4-carboxamide]
– | – | 200 to 500 | CCC(CC)n1cc(C(=O)NCc2ccn(C)n2)c2cc(OC)c(OC)cc2c1=O [Example 269, 6,7-Dimethoxy-N-((1-methyl-1H-pyrazol-3-yl)methyl)-1-oxo-2-(pentan-3-yl)-1,2-dihydroisoquinoline-4-carboxamide]
– | – | 200 to 500 | CCn1cc(C(=O)NCc2ccc(C)cc2F)c2cc(OC)c(OC)cc2c1=O [Example 273, 2-Ethyl-N-[(2-fluoro-4-methyl-phenyl)methyl]-6,7-dimethoxy-1-oxo-isoquinoline-4-carboxamide]
– | – | 200 to 500 | CCn1cc(C(=O)NCc2ccc(C)c(F)c2F)c2cc(OC)c(OC)cc2c1=O [Example 278, N-[(2,3-Difluoro-4-methyl-phenyl)methyl]-2-ethyl-6,7-dimethoxy-1-oxo-isoquinoline-4-carboxamide]
– | – | 200 to 500 | CCn1cc(C(=O)NCc2ccc(C)cc2OCC(F)(F)F)c2cc(OC)c(OC)cc2c1=O [Example 288, 2-Ethyl-6,7-dimethoxy-N-[[4-methyl-2-(2,2,2-trifluoroethoxy)phenyl]methyl]-1-oxo-isoquinoline-4-carboxamide]
– | – | 200 to 500 | CCn1cc(C(=O)NCc2ccc(C)cc2OCC2CC2)c2cc(OC)c(OC)cc2c1=O [Example 290, N-[[2-(Cyclopropylmethoxy)-4-methyl-phenyl]methyl]-2-ethyl-6,7-dimethoxy-1-oxo-isoquinoline-4-carboxamide]
– | – | 200 to 500 | CCn1cc(C(=O)NCc2ccc(C)cc2OC(C)C)c2cc(OC)c(OC)cc2c1=O [Example 302, 2-Ethyl-N-(2-isopropoxy-4-methylbenzyl)-6,7-dimethoxy-1-oxo-1,2-dihydroisoquinoline-4-carboxamide]
– | – | 200 to 500 | CCn1cc(C(=O)NCc2ccc(C)cc2OC2CCOC2)c2cc(OC)c(OC)cc2c1=O (centres unmarked) [Example 303, 2-Ethyl-6,7-dimethoxy-N-(4-methyl-2-(tetrahydrofuran-3-yloxy)benzyl)-1-oxo-1,2-dihydroisoquinoline-4-carboxamide]
– | – | 200 to 500 | CCn1cc(C(=O)NCc2ccc(C)cc2OC)c2cc(OC)c(OC)cc2c1=O [Example 308, 2-Ethyl-6,7-dimethoxy-N-(2-methoxy-4-methylbenzyl)-1-oxo-1,2-dihydroisoquinoline-4-carboxamide]
– | ++ (<100 μl min^−1 mg^−1) | 200 to 500 | CCn1cc(C(=O)NCc2cscn2)c2cc(OC)c(OC)cc2c1=O [Example 309, 2-Ethyl-6,7-dimethoxy-1-oxo-N-(thiazol-4-ylmethyl)isoquinoline-4-carboxamide]
++ (<100 μl min^−1 mg^−1) | ++ (<100 μl min^−1 mg^−1) | – | CCn1cc(C(=O)NCc2ccc(C(F)(F)F)cc2)c2cc(OC)c(OC)cc2c1=O [Example 310, 2-Ethyl-6,7-dimethoxy-1-oxo-N-[[4-(trifluoromethyl)phenyl]-methyl]isoquinoline-4-carboxamide]
++ (<100 μl min^−1 mg^−1) | + (100-220 μl min^−1 mg^−1) | – | CCn1cc(C(=O)NCc2ccc(C(C)C)cc2)c2cc(OC)c(OC)cc2c1=O [Example 312, 2-Ethyl-N-[(4-isopropylphenyl)methyl]-6,7-dimethoxy-1-oxo-isoquinoline-4-carboxamide]
– | – | < 100 | CCCCNC(=O)c1cn(CCc2ccc3ccccc3n2)c(=O)c2cc(OC)c(OC)cc12 [Example 322, N-Butyl-6,7-dimethoxy-1-oxo-2-[2-(2-quinolyl)ethyl]isoquinoline-4-carboxamide; 2,2,2-trifluoroacetic acid]

The remaining lines, values behind:

Compound | Rat mCl [1] | Human mCl [2] | IC50 (PDE10A) [nM]
CCC(CC)n1cc(C(=O)NCc2cscn2)c2cc(OC)c(OC)cc2c1=O [Example 203, 2-(1-Ethyl-propyl)-6,7-dimethoxy-1-oxo-1,2-dihydro-isoquinoline-4-carboxylic acid (thiazol-4-ylmethyl)-amide] | ++ (<100 μl min^−1 mg^−1) | ++ (<100 μl min^−1 mg^−1) | –
CCC(CC)n1cc(C(=O)NCc2ccncc2)c2cc(OC)c(OC)cc2c1=O [Example 261, 6,7-Dimethoxy-1-oxo-2-(pentan-3-yl)-N-(pyridin-4-ylmethyl)-1,2-dihydroisoquinoline-4-carboxamide] | – | – | 200 to 500
CCC(CC)n1cc(C(=O)NCc2ccc(C#N)o2)c2cc(OC)c(OC)cc2c1=O [Example 264, N-((5-Cyanofuran-2-yl)methyl)-6,7-dimethoxy-1-oxo-2-(pentan-3-yl)-1,2-dihydroisoquinoline-4-carboxamide] | – | – | 200 to 500
CCc1ccc(CNC(=O)c2cn(C(CC)CC)c(=O)c3cc(OC)c(OC)cc23)s1 [Example 266, N-((5-Ethylthiophen-2-yl)methyl)-6,7-dimethoxy-1-oxo-2-(pentan-3-yl)-1,2-dihydroisoquinoline-4-carboxamide] | – | – | 200 to 500
CCC(CC)n1cc(C(=O)NCc2ccoc2C)c2cc(OC)c(OC)cc2c1=O [Example 268, 6,7-Dimethoxy-N-((2-methylfuran-3-yl)methyl)-1-oxo-2-(pentan-3-yl)-1,2-dihydroisoquinoline-4-carboxamide] | – | – | 200 to 500
CCn1cc(C(=O)NCc2ccc(C)cc2OC(C)(C)C)c2cc(OC)c(OC)cc2c1=O [Example 276, N-[(2-tert-Butoxy-4-methyl-phenyl)methyl]-2-ethyl-6,7-dimethoxy-1-oxo-isoquinoline-4-carboxamide] | – | – | 200 to 500
CCn1cc(C(=O)NCc2ccc(C)cc2OC(C)(C)CC)c2cc(OC)c(OC)cc2c1=O [Example 277, N-[[2-(1,1-Dimethylpropoxy)-4-methyl-phenyl]methyl]-2-ethyl-6,7-dimethoxy-1-oxo-isoquinoline-4-carboxamide] | – | – | 200 to 500
CCn1cc(C(=O)NCc2ccc(C)cc2OCCOC)c2cc(OC)c(OC)cc2c1=O [Example 293, 2-Ethyl-6,7-dimethoxy-N-[[2-(2-methoxyethoxy)-4-methyl-phenyl]methyl]-1-oxo-isoquinoline-4-carboxamide] | – | – | 200 to 500
CCC(C)Oc1cc(C)ccc1CNC(=O)c1cn(CC)c(=O)c2cc(OC)c(OC)cc12 (centres unmarked) [Example 298, N-(2-sec-Butoxy-4-methylbenzyl)-2-ethyl-6,7-dimethoxy-1-oxo-1,2-dihydroisoquinoline-4-carboxamide] | – | – | 200 to 500
CCn1cc(C(=O)NCc2ccc(C)cc2OCC2CCCO2)c2cc(OC)c(OC)cc2c1=O (centres unmarked) [Example 305, 2-Ethyl-6,7-dimethoxy-N-(4-methyl-2-((tetrahydrofuran-2-yl)methoxy)benzyl)-1-oxo-1,2-dihydroisoquinoline-4-carboxamide] | – | – | 200 to 500
CCn1cc(C(=O)N[C@@H](C)c2ccc(C)cc2)c2cc(OC)c(OC)cc2c1=O [Example 311, 2-Ethyl-6,7-dimethoxy-1-oxo-N-[(1S)-1-(p-tolyl)ethyl]isoquinoline-4-carboxamide] | – | ++ (<100 μl min^−1 mg^−1) | 200 to 500
COc1cc2c(C(=O)NC3CCc4ccccc43)cn(CCc3ccc4ccccc4n3)c(=O)c2cc1OC (centres unmarked) [Example 323, N-Indan-1-yl-6,7-dimethoxy-1-oxo-2-[2-(2-quinolyl)ethyl]isoquinoline-4-carboxamide; 2,2,2-trifluoroacetic acid] | – | – | 200 to 500

Source: patent publication US9856220B2 (AbbVie Deutschland GmbH & Co. KG, priority 2011, dated 2018)
